Source: US10570180B2, “Anti-bacterial agents and their use in therapy” (priority 2015, dated 2020)
≈ marks a conversion by molar mass, not a printed value. Read-outs that look alike come from different tables or passages of the source. Ends that are not written are not given here.

Tests used:
E. faecium CTC 492 = test: MIC assay of antibiotics with ATX-101; type: cell-based, Enterococcus faecium; details: Enterococcus faecium, CTC492, E. faecium CTC 492, read-out: Est MIC
Method: The minimum inhibitory concentration (MIC) of ATX-101 (SEQ ID NO: 1289) was determined for various gram negative and gram positive bacteria. The bacteria, Pseudomonas aeruginosa ATCC 15692, Acinetobacter baumenni ATCC 19600, Escherichia coli ATCC 25922, Pseudomonas aeruginosa TO-5A (clinical isolate), Enterococous faecium CCUG 37832, Enterococcus faecium CTC 492, Micrococcus luteus ATCC 9341 and Escherichie coli NCIMB 12210 were grown in the presence of various concentrations of ATX-101 and/or antibiotic.
(§1) ATX-101 was dissolved in Mueller-Hinton broth to 1.25 times of the desired assay concentration. Antibiotics were dissolved in Mueller-Hinton broth and Mueller-Hinton broth with ATX-101 at a concentration of 1.25 times the highest desired assay concentrations. Antibiotics were pharmaceutical grade purchased from Sigma-Aldrich.
(§2) Two-fold serial dilutions of antibiotics were made in Mueller-Hinton with different concentrations of ATX-101, and the solutions were placed in four parallel wells is Nunc 384-well micro plates (30 μl per well in Nunc 242757 microplates). A group of 8 wells with no addition of antibiotics for each ATX-101 concentration was included on each micro plate as a growth reference.
(§3) At the day of analysis, overnight TSB cultures inoculated from freeze stocks (6 ml in 50 ml tube tilted to 45-degrees angle, 200 rpm, 2.5 cm amplitude, 37° C.) were diluted in TSB until the OD800 was 0.10, and further diluted 1:40 in Mueller-Hinton broth. Each well in the 384-well assay plates was inoculated with 7.5 μl of the diluted culture, giving the same dilution of the culture in the assay cultures. The microplates were placed in plastic bags and incubated without shaking at 37° C. The optical density at 600 nm in the microwells was measured after approximately 19 hours of incubation, and the relative growth yield was calculated based on the growth in the reference groups. The MIC value was set to the highest concentration giving less than 30% growth in all 4 parallel wells within the sample groups. The microplates were further incubated for 6 hours, and optical density in the cultures was measured once more for confirmation of the estimated MIC-values.
as §1, with “The APIM peptide was” for “ATX-101 was”, “with APIM” for “with ATX-101”
as §2, with “APIM,” for “ATX-101,”, “in” for “is”, “APIM” for “ATX-101”, “as” for “as a”
as §3, with “inoculated” for “inoculated from”, “OD600” for “OD800”, “culture.” for “culture, giving the same dilution of the culture in the assay cultures.”, “yield in each well” for “yield”

A. baumanii ATCC 19606 = test: MIC assay of antibiotics with ATX-101; type: cell-based; details: for MIC: Acinetobacter baumannii; for Est MIC: A. baumanii ATCC 19606
Method: as §1, with “The APIM peptide was” for “ATX-101 was”, “with APIM” for “with ATX-101”
as §2, with “APIM,” for “ATX-101,”, “in” for “is”, “APIM” for “ATX-101”, “as” for “as a”
as §3, with “inoculated” for “inoculated from”, “OD600” for “OD800”, “culture.” for “culture, giving the same dilution of the culture in the assay cultures.”, “yield in each well” for “yield”

E. faecium TO-12 = type: cell-based
Method: as §1, §2, §3
(§4) The MICS for various APIM peptides were determined for various bacteria, as described above.

[1] = test system: Staphylococcus aureus NCTC 6571; type: cell-based; details: NCTC 6571
Method: as §1, §2, §3, §4

[2] = test system: Staphylococcus aureus MRSA 1040s; test: microbe, parasite or virus in culture; type: cell-based; details: for MIC: 1040s; for MIC of Erythromycin (Relative values): concentration of APIM peptide 15 μg/ml, MRSA 1040s
Method: as §1, §2, §3
as §1, with “The APIM peptide was” for “ATX-101 was”, “with APIM” for “with ATX-101”
as §2, with “APIM,” for “ATX-101,”, “in” for “is”, “APIM” for “ATX-101”, “as” for “as a”
as §3, with “inoculated” for “inoculated from”, “OD600” for “OD800”, “culture.” for “culture, giving the same dilution of the culture in the assay cultures.”, “yield in each well” for “yield”
In view of the anti-bacterial effect of ATX-101 on strains of MRSA, the MIC for a variety of APIM variants was determined using Staphylococcus aureus MRSA 1040s. […] A cell penetrating peptide (SEQ ID NO: 337) present in all of the APIM peptides, was used as a negative control.
Next, the effect of APIM peptides on the MIC of antibiotics was determined using Staphylococcus aureus MRSA 1040s.
as §4

[3] = test system: E. faecium CCUG 37832 (TO-3); type: cell-based, Enterococcus faecium; details: CCUG 37832
Method: as §1, §2, §3
Accordingly, concentrations of 8 μg/ml and 16 μg/ml of ATX-101 were combined with various antibiotics selected from; 2,4-Diamin, S. methizol, S. methoxa, S. dimetho, Surfaceta, Trimeth, Flumeq, Levoflox, Pruliflox, Metronid and Nitrofur.
as §4

Compound: CO[C@H]1/C=C/O[C@@]2(C)Oc3c(C)c(O)c4c(O)c(c(/C=N/N5CCN(C)CC5)c(O)c4c3C2=O)NC(=O)/C(C)=C\C=C\[C@H](C)[C@H](O)[C@@H](C)[C@@H](O)[C@@H](C)[C@H](OC(C)=O)[C@@H]1C [Rifampicin]
- MIC (E. faecium CTC 492; APIM (ATX-101) conc. 6.5 μg/ml): 32 µg/mL (≈ 38.9 µM)
- MIC (E. faecium CTC 492; APIM (ATX-101) conc. 13 μg/ml): 4 µg/mL (≈ 4.86 µM)
- MIC (E. faecium CTC 492; APIM (ATX-101) conc. 20 μg/ml): 8 µg/mL (≈ 9.72 µM)
- MIC (E. faecium CTC 492; APIM conc. 0 μg/ml): 16 µg/mL (≈ 19.4 µM)
- MIC (A. baumanii ATCC 19606; ATCC19606, A. baumanii ATCC 19606, APIM (ATX-101) conc. 2 μg/ml, read-out: Est MIC): 2 µg/mL (≈ 2.43 µM)
- MIC (A. baumanii ATCC 19606; ATCC19606, A. baumanii ATCC 19606, APIM (ATX-101) conc. 4 μg/ml, read-out: Est MIC): 1 µg/mL (≈ 1.22 µM)
- MIC (A. baumanii ATCC 19606; ATCC19606, A. baumanii ATCC 19606, APIM (ATX-101) conc. 8 μg/ml, read-out: Est MIC): 1 µg/mL (≈ 1.22 µM)
- MIC (A. baumanii ATCC 19606; ATCC19606, A. baumanii ATCC 19606, APIM conc. 0 μg/ml, read-out: Est MIC): 2 µg/mL (≈ 2.43 µM)

Compound: NC[C@H]1O[C@H](O[C@H]2[C@H](O)[C@@H](O[C@H]3O[C@H](CO)[C@@H](O)[C@H](N)[C@H]3O)[C@H](N)C[C@@H]2N)[C@H](N)C[C@@H]1O [Tobramycin]
- MIC (E. faecium CTC 492; APIM (ATX-101) conc. 6.5 μg/ml): 64 µg/mL (≈ 137 µM)
- MIC (E. faecium CTC 492; APIM (ATX-101) conc. 13 μg/ml): 32 µg/mL (≈ 68.4 µM)
- MIC (E. faecium CTC 492; APIM conc. 0 μg/ml): 64 µg/mL (≈ 137 µM)

Compound: CN[C@H](CC(C)C)C(=O)N[C@H]1C(=O)N[C@@H](CC(N)=O)C(=O)N[C@H]2C(=O)N[C@H]3C(=O)N[C@H](C(=O)N[C@H](C(=O)O)c4cc(O)cc(O)c4-c4cc3ccc4O)[C@H](O)c3ccc(c(Cl)c3)Oc3cc2cc(c3O[C@@H]2O[C@H](CO)[C@@H](O)[C@H](O)[C@H]2O[C@H]2C[C@](C)(N)[C@H](O)[C@H](C)O2)Oc2ccc(cc2Cl)[C@H]1O [Vancomycin]
- MIC (A. baumanii ATCC 19606; ATCC19606, read-out: Est MIC, A. baumanii ATCC 19606, APIM (ATX-101) conc. 2 μg/ml): 32 µg/mL (≈ 22.1 µM)
- MIC (A. baumanii ATCC 19606; ATCC19606, read-out: Est MIC, A. baumanii ATCC 19606, APIM (ATX-101) conc. 4 μg/ml): 16 µg/mL (≈ 11 µM)
- MIC (A. baumanii ATCC 19606; ATCC19606, read-out: Est MIC, A. baumanii ATCC 19606, APIM conc. 0 μg/ml): 32 µg/mL (≈ 22.1 µM)

Compound: Gentamicin
- Est MIC (A. baumanii ATCC 19606; APIM (ATX-101) conc. 2 μg/ml): 16 µg/mL
- Est MIC (A. baumanii ATCC 19606; APIM (ATX-101) conc. 4 μg/ml): 8 µg/mL
- Est MIC (A. baumanii ATCC 19606; APIM conc. 0 μg/ml): 16 µg/mL

Compound: MDRFLSKWKKKRKIRRRRRRRRRRR [SEQ ID NO: 1301]
- MIC (E. faecium TO-12): 25.3 µM
- MIC [1]: 37.9 µM
- MIC [2]: 7.5 µM
- MIC [3]: 7.5 µM

Compound: MDRFSLKWKKKRKIRRRRRRRRRRR [SEQ ID NO: 1304]
- MIC (E. faecium TO-12): 25.3 µM
- MIC [1]: 37.9 µM
- MIC [2]: 7.5 µM
- MIC [3]: 7.5 µM

Compound: MDRWLSKWKKKRKIRRRRRRRRRRR [SEQ ID NO: 1302]
- MIC (E. faecium TO-12): 16.8 µM
- MIC [1]: 37.9 µM
- MIC of Erythromycin (Relative values) [2]: 200
- MIC [3]: 7.5 µM

Compound: MDRWLTKWKKKRKIRRRRRRRRRRR [SEQ ID NO: 1300]
- MIC (E. faecium TO-12): 25.3 µM
- MIC [1]: 37.9 µM
- MIC of Erythromycin (Relative values) [2]: 100
- MIC [3]: 7.5 µM
